Results from PubChem BioAssay AID248 (DTP/NCI, 2004).
Values joined by “and” are separate entries in the source; they are usually repeats but may differ in a detail not shown here. Identical values can stand only once. Toxic doses and inconclusive results are not listed. Cut-off read from the data, not from the text of the source: active = T/C of 150% or more; inactive = T/C below 125%.

Tested on: L1210 leukemia ip in BDF1 mice, survival T/C
Assay: NCI In Vivo Anticancer Drug Screen. Data for tumor model L1210 Leukemia (intraperitoneal) in B6D2F1 (BDF1) mice
Details: endpoint: mean survival time, higher = longer survival
Method in brief: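 Tumor cells were implanted, animals were treated, and survival was followed. The result divides the treated measurement by the vehicle-control measurement.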

[1] = dose: 100.0 mg/kg/injection, schedule: Q04DX003 (ip), vehicle: saline with Tween-80
[2] = dose: 200.0 mg/kg/injection, schedule: Q04DX003 (ip), vehicle: saline with Tween-80
[3] = dose: 400.0 mg/kg/injection, schedule: Q04DX003 (ip), vehicle: saline with Tween-80
[4] = dose: 100.0 mg/kg/injection, schedule: Q04DX002 (ip), vehicle: saline
[5] = dose: 19.0 mg/kg/injection, schedule: Q01DX001 (ip), vehicle: other
[6] = dose: 38.0 mg/kg/injection, schedule: Q01DX001 (ip), vehicle: other
[7] = dose: 100.0 mg/kg/injection, schedule: Q04DX003 (ip), vehicle: Klucel (hydroxypropylcellulose) (HPC)
[8] = dose: 200.0 mg/kg/injection, schedule: Q04DX003 (ip), vehicle: Klucel (hydroxypropylcellulose) (HPC)

Measured: T/C

COc1cc2c(c(OC)c1OC)c(=O)c1ccccc1n2C
inactive: dose: 50.0 mg/kg/injection, schedule: Q01DX Z (ip), vehicle: carboxymethylcellulose (CMC) 97 % of control | dose: 100.0 mg/kg/injection, schedule: Q01DX Z (ip), vehicle: carboxymethylcellulose (CMC) 103 % of control | dose: 200.0 mg/kg/injection, schedule: Q01DX Z (ip), vehicle: carboxymethylcellulose (CMC) 101 % of control

CSc1nc(C)c(Br)c(N2CC2)n1
inactive: dose: 50.0 mg/kg/injection, schedule: Q01DX Z (ip), vehicle: methylcellulose (MC) 95 % of control

O=C(/C=C/C=C/c1ccccc1)c1ccccc1O
inactive: dose: 50.0 mg/kg/injection, schedule: Q01DX009 (ip), vehicle: saline with Tween-80 91 % of control | dose: 100.0 mg/kg/injection, schedule: Q01DX009 (ip), vehicle: saline with Tween-80 87 % of control and 89 % of control | [1] 94 % of control | dose: 200.0 mg/kg/injection, schedule: Q01DX009 (ip), vehicle: saline with Tween-80 94 % of control | [2] 91 % of control | dose: 400.0 mg/kg/injection, schedule: Q01DX009 (ip), vehicle: saline with Tween-80 89 % of control | [3] 93 % of control

O=C(O)C1CC(c2ccccc2)OC1=O (stereo not given)
inactive: dose: 100.0 mg/kg/injection, schedule: Q01DX009 (ip), vehicle: gum acacia 101 % of control | dose: 100.0 mg/kg/injection, schedule: Q04DX003 (ip), vehicle: gum acacia 98 % of control | dose: 200.0 mg/kg/injection, schedule: Q01DX009 (ip), vehicle: gum acacia 89 % of control | dose: 200.0 mg/kg/injection, schedule: Q04DX003 (ip), vehicle: gum acacia 93 % of control | dose: 400.0 mg/kg/injection, schedule: Q01DX009 (ip), vehicle: gum acacia 106 % of control | dose: 400.0 mg/kg/injection, schedule: Q04DX003 (ip), vehicle: gum acacia 91 % of control

O=C(CCl)NP(=O)(O)OCc1ccccc1
inactive: dose: 25.0 mg/kg/injection, schedule: Q04DX002 (ip), vehicle: saline 102 % of control | dose: 50.0 mg/kg/injection, schedule: Q04DX002 (ip), vehicle: saline 94 % of control | [4] 91 % of control

c1ccc2c[s+]ccc2c1
inactive: [4] 90 % of control | dose: 200.0 mg/kg/injection, schedule: Q04DX002 (ip), vehicle: saline 94 % of control | dose: 400.0 mg/kg/injection, schedule: Q04DX002 (ip), vehicle: saline 103 % of control

[N-]=[N+]=NC(=O)C1C(c2ccccc2)=C1c1ccccc1
inactive: dose: 100.0 mg/kg/injection, schedule: Q01DX001 (ip), vehicle: steriod suspending solution 93 % of control | dose: 200.0 mg/kg/injection, schedule: Q01DX001 (ip), vehicle: steriod suspending solution 106 % of control | dose: 400.0 mg/kg/injection, schedule: Q01DX001 (ip), vehicle: steriod suspending solution 98 % of control

CC(C)C1CCC(NC(=O)NCCF)CC1 (stereo not given)
inactive: dose: 9.5 mg/kg/injection, schedule: Q01DX001 (ip), vehicle: other 105 % of control | [5] 100 % of control | [6] 102 % of control

COc1ccc(C=Nc2cc([N+](=O)[O-])ccc2O)cc1
inactive: dose: 100.0 mg/kg/injection, schedule: Q01DX001 (ip), vehicle: carboxymethylcellulose (CMC) 98 % of control | dose: 200.0 mg/kg/injection, schedule: Q01DX001 (ip), vehicle: carboxymethylcellulose (CMC) 98 % of control | dose: 400.0 mg/kg/injection, schedule: Q01DX001 (ip), vehicle: carboxymethylcellulose (CMC) 94 % of control

O=C1CN(C(=O)CN2C(=O)c3ccccc3C2=O)C2(CCCCC2)O1
inactive: dose: 66.0 mg/kg/injection, schedule: Q04DX003 (ip), vehicle: saline sonified 94 % of control | dose: 150.0 mg/kg/injection, schedule: Q04DX003 (ip), vehicle: saline sonified 101 % of control | dose: 200.0 mg/kg/injection, schedule: Q04DX003 (ip), vehicle: saline sonified 95 % of control | dose: 400.0 mg/kg/injection, schedule: Q04DX003 (ip), vehicle: saline sonified 97 % of control

CC(C)(C)C1CCC([N+](=O)[O-])CC1 (stereo not given)
inactive: [5] 103 % of control | dose: 19.0 mg/kg/injection, schedule: Q01DX009 (ip), vehicle: other 102 % of control | [6] 97 % of control | dose: 38.0 mg/kg/injection, schedule: Q01DX009 (ip), vehicle: other 98 % of control | dose: 75.0 mg/kg/injection, schedule: Q01DX001 (ip), vehicle: other 95 % of control and 97 % of control

CCC(=O)NC1(C(=O)O)CCCc2ccccc21 (stereo not given)
inactive: [7] 110 % of control | [8] 96 % of control

CCCCOC(=O)c1ccc(OCCOc2ccc(C(C)(C)CC(C)(C)C)cc2)c(NC(=O)CC(=O)c2cccc(N)c2)c1
inactive: dose: 100.0 mg/kg/injection, schedule: Q01DX009 (ip), vehicle: saline sonified 97 % of control | [7] 96 % of control | dose: 200.0 mg/kg/injection, schedule: Q01DX009 (ip), vehicle: saline sonified 91 % of control | [8] 93 % of control | dose: 400.0 mg/kg/injection, schedule: Q01DX009 (ip), vehicle: saline sonified 103 % of control | dose: 400.0 mg/kg/injection, schedule: Q04DX003 (ip), vehicle: Klucel (hydroxypropylcellulose) (HPC) 88 % of control

O=C(CNC(=O)c1ccccc1)Nc1ccc([N+](=O)[O-])cc1
inactive: dose: 100.0 mg/kg/injection, schedule: Q01DX001 (ip), vehicle: saline 100 % of control | dose: 200.0 mg/kg/injection, schedule: Q01DX001 (ip), vehicle: saline 100 % of control | dose: 400.0 mg/kg/injection, schedule: Q01DX001 (ip), vehicle: saline 94 % of control

Brc1ccc(N2N=NC3CN(c4ccccc4)CC32)cc1 (stereo not given)
inactive: [1] 88 % of control | [2] 91 % of control | [3] 93 % of control
